Experimental data published in US20100323989A1, “PHARMACEUTICAL COMBINATIONS USEFUL FOR TREATING HCV” (Gilead Sciences, Inc., priority 2009, published 2010).
Values joined by “and” are separate entries in the source; they are usually repeats but may differ in a detail not shown here. Identical values can stand only once. Like-named read-outs stand apart in the source and are kept apart here.

Columns and labels:
[1] = tested on: 1b PI-luc replicon with NS3 protease mutation V36M; type: cell-based, HCV genotype 1b; details: ratio of mutant EC50 to wild type EC50, NS3 V36M
[2] = Pharmacokinetic drug-drug interaction study, single dose with multiple-dose partner, healthy subjects (Example 6); type: in vivo, human; details: for AUC(0-t) / AUC(0-inf) / Cmax / half-life: human, plasma, Group 3, human; for AUC(0-t): read-out: Compound 2 AUC0-last, Mean (% CV); for AUC(0-inf): read-out: Compound 2 AUCinf, Mean (% CV); for Cmax: read-out: Compound 2 Cmax, Mean (% CV); for half-life: read-out: Compound 2 T1/2, Median (min, max) (converted)
Procedure: In this study, healthy subjects were randomized into one of the following three treatment groups: […] Treatment Group 3 (N=20): […] Serial blood samples for analysis of plasma concentrations of Compound 2 were collected up to 72 hours post-morning dose on Days 1 and 10 to determine systemic drug exposure.

[3] = tested on: 1b PI-luc replicon with NS3 protease mutation T54A; type: cell-based, HCV genotype 1b; details: ratio of mutant EC50 to wild type EC50, NS3 T54A
[4] = tested on: 1b PI-luc replicon with NS3 protease mutation R155K; type: cell-based, HCV genotype 1b; details: ratio of mutant EC50 to wild type EC50, NS3 R155K
[5] = tested on: HCV genotype 1b replicon cells (Huh-luc); assay: Combination study in Huh-luc replicon cells analysed with MacSynergy II; type: cell-based; details: Compound 1 in combination with Compound 2, MacSynergy II
Procedure: (§1) HCV genotype 1b replicon cells (Huh-luc) were obtained from Reblikon (Mainz, Germany). The replicon in these cells is designated I389luc-ubi-neo/NS3-3′/ET and encodes a selectable resistance marker (neomycin phosphotransferase) as well as the firefly luciferase reporter gene. Huh-luc cells were maintained in Dulbecco's Modified Eagle's Medium (DMEM; GIBCO, Carlsbad, Calif.) supplemented with 10% fetal bovine serum (FBS; Hyclone, Logan, Utah) and 0.5 mg/mL of G-418 (GIBCO). Cells were passaged twice a week and maintained at subconfluent levels.
For each individual drug, the EC50 value was selected as the midpoint for the concentration range tested. Cells were incubated for three days and analyzed for luciferase expression as indicated above. For the combination study, two independent experiments were performed in triplicate.
The calculated volumes of surface deviations are expressed in nM2%. Per Prichard and Shipman, combination effects are defined as:
Highly synergistic if volumes >100 nM^2.
Slightly synergistic if volumes are >50 and ≦100 nM^2.
Additive if volumes are >−50 nM^2 and ≦50 nM^2.
Slightly antagonistic if volumes are >−100 nM^2 and ≦−50 nM^2.
Antagonistic if volumes are ≦−100 nM^2.

[6] = tested on: 1b Con-1 PI-Luc replicon with NS5B polymerase mutations C316Y/C445F/Y452H; type: cell-based, HCV genotype 1b; details: ratio of mutant EC50 to wild type EC50, NS5B C316Y/C445F/Y452H
[7] = tested on: 1b PI-luc replicon with NS3 protease mutation A156T; type: cell-based, HCV genotype 1b; details: ratio of mutant EC50 to wild type EC50, NS3 A156T
[8] = Multiple-dose pharmacokinetic interaction study in healthy subjects (Example 5); type: in vivo, human; details: plasma, human, oral, Compound 2 (75 mg BID) alone, Day 7
[9] = tested on: 1b Con-1 PI-Luc replicon with NS5B polymerase mutation M423T; type: cell-based, HCV genotype 1b; details: ratio of mutant EC50 to wild type EC50, NS5B M423T
[10] = tested on: 1b PI-luc replicon with NS3 protease mutation D168V; type: cell-based, HCV genotype 1b; details: ratio of mutant EC50 to wild type EC50, NS3 D168V
[11] = tested on: 1b Con-1 PI-Luc replicon with NS5B polymerase mutation Y448H; type: cell-based, HCV genotype 1b; details: ratio of mutant EC50 to wild type EC50, NS5B Y448H
[12] = tested on: 1b PI-luc replicon with NS3 protease mutation D168E; type: cell-based, HCV genotype 1b; details: ratio of mutant EC50 to wild type EC50, NS3 D168E
[13] = tested on: HCV 1b-con replicon cells; assay: Long-term (20 days, 6 passages) treatment of HCV replicon cells, HCV RNA by Real-Time RT PCR; type: cell-based, HCV genotype 1b; details: from baseline, compounds at 10 times their EC50, mean ± SD
Procedure: as §1
Both compounds were used at concentrations 10 times over their respective EC50 values. In brief, replicon cells (10^6 cells) were plated in a T75 flask in 15 mL of supplemented DMEM without G418. […] At each passage, cells were trypsinized, 10^6 cells were frozen in […] of RLT RNA lysis buffer (QIAGEN), and an additional 10^6 cells were seeded into another T75 flask with fresh medium and inhibitors. At the end of the assay, RNA was extracted from frozen replicon cells saved at the time of passage using QIAGEN RNeasy spin kit and was analyzed in a Real-Time RT PCR assay (Applied Biosystems).

[14] = tested on: wild-type 1b Con-1 PI-Luc replicon; assay: Transient transfection replicon assay, wild type; type: cell-based, HCV genotype 1b; details: Hepatitis C virus
[15] = tested on: 1b Con-1 PI-Luc replicon with NS5B polymerase mutation M414T; type: cell-based, HCV genotype 1b; details: ratio of mutant EC50 to wild type EC50, NS5B M414T
[16] = Group 3, Compound 1 + Compound 2 / Compound 2 alone
[17] = Group 3, Compound 2 75 mg with Compound 1 40 mg BID vs Compound 2 75 mg alone
[18] = 75 mg, Compound 2 75 mg SD alone
[19] = Compound 2 75 mg SD + Compound 1 40 mg BID

## COc1ccc2c(O[C@@H]3C[C@H]4C(=O)N[C@]5(P(=O)(O)Cc6c(F)cccc6F)C[C@H]5CCCCCCC[C@H](NC(=O)OC5CCCC5)C(=O)N4C3)cc(-c3csc(NC(C)C)n3)nc2c1Cl [Compound 2]
[1]
  Fold Resistance V36M: 3.0 fold
[2]; [16]
  Compound 2 AUC0-last, % Geometric Least-Squares Mean Ratio (90% CI): 83.8 (75.5, 93.2) %
  Compound 2 AUCinf, % Geometric Least-Squares Mean Ratio (90% CI): 84.9 (76.6, 94.1) %
  Compound 2 Cmax, % Geometric Least-Squares Mean Ratio (90% CI): 81.3 (72.5, 91.1) %
[2]; Group 3, Compound 2 75 mg alone vs with Compound 1 40 mg BID
  Median terminal elimination half-lives of Compound 2, comparison between the two treatments: similar
[2]; [17]
  decrease in AUC0-last of Compound 2: 16%
  decrease in AUCinf of Compound 2: 15%
  decrease in Cmax of Compound 2: 19%
[2]; [18]
  AUC(0-t): 8790 ng·h/mL
  AUC(0-inf): 9460 ng·h/mL
  Cmax: 1040 ng/mL
  half-life: 5.05 h
[2]; [19]
  AUC(0-t): 7270 ng·h/mL
  AUC(0-inf): 7920 ng·h/mL
  Cmax: 830 ng/mL
  half-life: 6.06 h
[3]
  Fold Resistance T54A: 0.6 fold
[4]
  Fold Resistance R155K: 566.3 fold
[5]
  Interaction: additive
[6]
  Fold Resistance C316Y/C445F/Y452H: 2.1 fold
[7]
  Fold Resistance A156T: 1882.4 fold
[8]; read-out: Compound 2 Cmax, Mean (% CV)
  Cmax: 4500 ng/mL
[8]; read-out: Compound 2 Ctau, Mean (% CV)
  concentration at 12 h: 1550 ng/mL
[9]
  Fold Resistance M423T: 1.1 fold
[10]
  Fold Resistance D168V: 1832.3 fold
[11]
  Fold Resistance Y448H: 1.0 fold
[12]
  Fold Resistance D168E: 120.0 fold
[13]
  HCV RNA Change in Log10, Passage 5: −2.9 ± 0.2 Log10
  HCV RNA Change in Log10, Passage 6: −3.1 Log10 and −3.1 ± 0.4 Log10
[14]; Table 3 (NS5B mutation study)
  EC50: 50.7 nM
[14]; Table 4 (NS3 protease mutation study)
  EC50: 21.4 nM
[15]
  Fold Resistance M414T: 2.0 fold
